Columns and labels:
HBV = HBV inhibitory activity: HBV DNA in the culture medium of HepG2.2.15 cells by q-PCR; format: cell-based; conditions: HepG2.2.15 cells, 6 days of compound treatment, HBV DNA in culture medium by q-PCR, highest concentration 10 μM; read-out: EC50
How it was run: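 Supernatant HBV DNA quantified by q-PCR after a 6-day compound exposure, with one mid-course medium change, of HepG2.2.15 cells (stably integrated HBV; 40,000 per well, 2% FBS). Eight-point 3-fold series topped at 10 μM for antiviral EC50; separate plates of 5,000 cells per well with 100 μM top give CC50.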

HepG2.2.15 cells = assay: Cytotoxicity determination in HepG2.2.15 cells (CCK-8); format: cell-based; conditions: 6 days of compound treatment, CCK-8, highest concentration 100 μM
How it was run: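 CC50 is from CCK-8 absorbance (450 nm, 630 nm reference) after 2.5 h with reagent. Before that, compounds were applied for six days, top concentration 100 μM, eight threefold dilutions, one mid-course medium change, to stably HBV-integrated HepG2.2.15 cells plated at 5,000/well in 2% FBS.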

Compound | EC50 (HBV) [nM] | CC50 (HepG2.2.15 cells) [nM]
CCOC(=O)C1=C(C2CCN(S(=O)(=O)[C@H]3C[C@H](C(=O)O)C3)CC2)NC(c2nccs2)=NC1c1ccc(F)c(F)c1C (single isomer, unassigned) [Compound 343C, (trans)-3-((4-(6-(3,4-difluoro-2-methylphenyl)-5-(ethoxycarbonyl)-2-(thiazol-2-yl)-3,6-dihydropyrimidin-4-yl)piperidin-1-yl)sulfonyl)cyclobutanecarboxylic Acid] | 14 | 25200
CCOC(=O)C1=C([C@H]2CC[C@H](C(=O)O)CO2)NC(c2nccs2)=NC1c1ccc(F)cc1Cl (single isomer, unassigned) [Compound 363H, (trans)-6-(6-(2-Chloro-4-fluorophenyl)-5-(ethoxycarbonyl)-2-(thiazol-2-yl)-3,6-dihydropyrimidin-4-yl)tetrahydro-2H-pyran-3-carboxylic Acid] | 650 | > 100000
COC(=O)C1=C(C23CC(N(C[C@@H](O)CO)S(C)(=O)=O)(C2)C3)NC(c2nccs2)=NC1c1ccc(F)cc1Cl (single isomer, unassigned) [Compound 376D] | 35 | 97300
COC(=O)C1=C(C2CCCN(S(C)(=O)=O)CC2)NC(c2nccs2)=NC1c1ccc(F)cc1Cl (single isomer, unassigned) [Compound 383D, Methyl 4-(2-chloro-4-fluorophenyl)-6-(1-(methylsulfonyl)azepan-4-yl)-2-(thiazol-2-yl)-1,4-dihydropyrimidine-5-carboxylate] | 148 | 31500
COC(=O)C1=C(C2CCN(S(=O)(=O)C3CC(C)(C(=O)O)C3)CC2)NC(c2nccs2)=NC1c1ccc(F)cc1Br (single isomer, unassigned) [Compound 410C, trans-3-((4-(6-(2-Bromo-4-fluorophenyl)-5-(methoxycarbonyl)-2-(thiazol-2-yl)-3,6-dihydropyrimidin-4-yl)piperidin-1-yl)sulfonyl)-1-methylcyclobutanecarboxylic Acid] | 16 | 24700
COC(=O)C1=C(C2CCN(S(=O)(=O)C3CC(C)(C(=O)O)C3)CC2)NC(c2nccs2)=NC1c1ccc(F)cc1Br (single isomer, unassigned) [Compound 410D, cis-3-((4-(6-(2-Bromo-4-fluorophenyl)-5-(methoxycarbonyl)-2-(thiazol-2-yl)-3,6-dihydropyrimidin-4-yl)piperidin-1-yl)sulfonyl)-1-methylcyclobutanecarboxylic Acid] | 43 | 23700
CCOC(=O)C1=C(C2CCN(S(=O)(=O)C3CC(C)(C(=O)O)C3)CC2)NC(c2nccs2)=NC1c1cccc(F)c1Br (single isomer, unassigned) [Compound 414C, (trans)-3-((4-(6-(2-Bromo-3-fluorophenyl)-5-(ethoxycarbonyl)-2-(thiazol-2-yl)-3,6-dihydropyrimidin-4-yl)piperidin-1-yl)sulfonyl)-1-methylcyclobutanecarboxylic Acid] | 19 | 17300
CCOC(=O)C1=C(C2CCN(S(=O)(=O)C3CC(C)(C(=O)O)C3)CC2)NC(c2nccs2)=NC1c1cccc(F)c1Br (single isomer, unassigned) [Compound 414D, (cis)-3-((4-(6-(2-Bromo-3-fluorophenyl)-5-(ethoxycarbonyl)-2-(thiazol-2-yl)-3,6-dihydropyrimidin-4-yl)piperidin-1-yl)sulfonyl)-1-methylcyclobutanecarboxylic Acid] | 39 | 16300
CCOC(=O)C1=C(C2CCN(S(=O)(=O)C3CC(C)(C(=O)O)C3)CC2)NC(c2nccs2)=NC1c1cccc(F)c1C (single isomer, unassigned) [Compound 429C, (trans)-3-((4-(−5-(Ethoxycarbonyl)-6-(3-fluoro-2-methylphenyl)-2-(thiazol-2-yl)-3,6-dihydropyrimidin-4-yl)piperidin-1-yl)sulfonyl)-1-methylcyclobutanecarboxylic Acid] | 66 | 25500
CCOC(=O)C1=C(C2CCN(S(=O)(=O)C3CC(C)(C(=O)O)C3)CC2)NC(c2nccs2)=NC1c1cccc(F)c1C (single isomer, unassigned) [Compound 429D, (cis)-3-((4-(−5-(Ethoxycarbonyl)-6-(3-fluoro-2-methylphenyl)-2-(thiazol-2-yl)-3,6-dihydropyrimidin-4-yl)piperidin-1-yl)sulfonyl)-1-methylcyclobutanecarboxylic Acid] | 49 | 16000
COC(=O)C1=C(C2CCN(S(=O)(=O)CC3(C)CCC(C(=O)O)CC3)CC2)NC(c2nccs2)=NC1c1ccc(F)cc1Cl (single isomer, unassigned) [Compound 450A, (cis)-4-(((4-(6-(2-Chloro-4-fluorophenyl)-5-(methoxycarbonyl)-2-(thiazol-2-yl)-3,6-dihydropyrimidin-4-yl)piperidin-1-yl)sulfonyl)methyl)-4-methylcyclohexanecarboxylic Acid] | 17 | 12800
COC(=O)C1=C(C2CCN(S(=O)(=O)CC3(C)CCC(C(=O)O)CC3)CC2)NC(c2nccs2)=NC1c1ccc(F)cc1Cl (single isomer, unassigned) [Compound 450B, (trans)-4-(((4-(6-(2-Chloro-4-fluorophenyl)-5-(methoxycarbonyl)-2-(thiazol-2-yl)-3,6-dihydropyrimidin-4-yl)piperidin-1-yl)sulfonyl)methyl)-4-methylcyclohexanecarboxylic Acid] | 7 | 14000
COC(=O)C1=C(C2CCN(S(=O)(=O)CC3(C)CCC(C(=O)O)CC3)CC2)NC(c2nccs2)=NC1c1ccc(F)c(F)c1Cl (single isomer, unassigned) [Compound 452A, (cis)-4-(((4-(6-(2-Chloro-3,4-difluorophenyl)-5-(methoxycarbonyl)-2-(thiazol-2-yl)-3,6-dihydropyrimidin-4-yl)piperidin-1-yl)sulfonyl)methyl)-4-methylcyclohexanecarboxylic Acid] | 6 | 9700
COC(=O)C1=C(C2CCN(S(=O)(=O)CC3(C)CCC(C(=O)O)CC3)CC2)NC(c2nccs2)=NC1c1ccc(F)c(F)c1Cl (single isomer, unassigned) [Compound 452B, (trans)-4-(((4-(6-(2-Chloro-3,4-difluorophenyl)-5-(methoxycarbonyl)-2-(thiazol-2-yl)-3,6-dihydropyrimidin-4-yl)piperidin-1-yl)sulfonyl)methyl)-4-methylcyclohexanecarboxylic Acid] | 5 | 7700
COC(=O)C1=C([C@H]2CC[C@H](C(=O)OC)CC2)NC(c2nccs2)=NC1c1ccc(F)cc1Cl (some centres unmarked) [Compound 18X] | 42 | 27900
COC(=O)C1=C(C2CCN(S(=O)(=O)C3CC(C)(C(=O)O)C3)CC2)NC(c2nccs2)=NC1c1ccc(F)cc1Cl (stereo not drawn) [Compound 142, (cis)-3-((4-(6-(2-chloro-4-fluorophenyl)-5-(methoxycarbonyl)-2-(thiazol-2-yl)-3,6-dihydropyrimidin-4-yl)piperidin-1-yl)sulfonyl)-1-methylcyclobutane-1-carboxylic Acid] | 89 | 37600
COC(=O)C1=C(C2CCN(S(C)(=N)=O)CC2)NC(c2nccs2)=NC1c1ccc(F)c(F)c1Cl (centres unmarked) [Compound 205B, methyl 4-(2-chloro-3,4-difluorophenyl)-6-(1-(S-methylsulfonimidoyl)piperidin-4-yl)-2-(thiazol-2-yl)-1,4-dihydropyrimidine-5-carboxylate] | 189 | 40500
CCOC(=O)C1=C(C2CCN(S(=O)(=O)[C@H]3C[C@](C)(C(=O)O)C3)CC2)NC(c2nccs2)=NC1c1ccc(F)c(F)c1Cl (stereo partly drawn) [Compound 270A, (trans)-3-((4-(6-(2-Chloro-3,4-difluorophenyl)-5-(ethoxycarbonyl)-2-(thiazol-2-yl)-3,6-dihydropyrimidin-4-yl)piperidin-1-yl)sulfonyl)-1-methylcyclobutanecarboxylic Acid] | 12 | 9200
CCOC(=O)C1=C(C2CCN(S(=O)(=O)C3CC(C)(C(=O)O)C3)CC2)NC(c2nccs2)=NC1c1ccc(F)c(F)c1Cl (stereo not drawn) [Compound 270B, (cis)-3-((4-(6-(2-Chloro-3,4-difluorophenyl)-5-(ethoxycarbonyl)-2-(thiazol-2-yl)-3,6-dihydropyrimidin-4-yl)piperidin-1-yl)sulfonyl)-1-methylcyclobutanecarboxylic Acid] | 17 | 10300
CCOC(=O)C1=C(C2CCN(S(=O)(=O)C3CC(C)(C(=O)O)C3)CC2)NC(c2nccs2)=NC1c1ccc(F)cc1Cl (stereo not drawn) [Compound 272A, (trans)-3-((4-(6-(2-Chloro-4-fluorophenyl)-5-(ethoxycarbonyl)-2-(thiazol-2-yl)-3,6-dihydropyrimidin-4-yl)piperidin-1-yl)sulfonyl)-1-methylcyclobutanecarboxylic Acid] | 17 | 16600
CCOC(=O)C1=C(C2CCN(S(=O)(=O)[C@H]3C[C@@](C)(C(=O)O)C3)CC2)NC(c2nccs2)=NC1c1ccc(F)cc1Cl (stereo partly drawn) [Compound 272B, (cis)-3-((4-(6-(2-Chloro-4-fluorophenyl)-5-(ethoxycarbonyl)-2-(thiazol-2-yl)-3,6-dihydropyrimidin-4-yl)piperidin-1-yl)sulfonyl)-1-methylcyclobutanecarboxylic Acid] | 47 | 20100
COC(=O)C1=C(C2CCN(S(=O)(=O)[C@H]3C[C@](C)(C(=O)O)C3)CC2)NC(c2nccs2)=NC1c1cccc(F)c1Cl (stereo partly drawn) [Compound 274A, (trans)-3-((4-(−6-(2-Chloro-3-fluorophenyl)-5-(methoxycarbonyl)-2-(thiazol-2-yl)-3,6-dihydropyrimidin-4-yl)piperidin-1-yl)sulfonyl)-1-methylcyclobutanecarboxylic Acid] | 42 | 31400

From patent publication US11639350B2, “Heteroaryldihydropyrimidine derivatives and methods of treating hepatitis B infections” (Janssen Pharmaceutica NV, priority 2018, dated 2023)
